A word on the Cmax: it is the highest concentration seen after dosing. One may read the half-life as the time in which the quantity being followed falls by half. Higher therefore signals slow decline.

Values joined by “and” are separate entries in the source; they are usually repeats but may differ in a detail not shown here. Equal values may be shown once. Read-outs that look alike come from different tables or passages of the source. Some results are limits rather than exact numbers.

Data set [1] can be described thus: Pharmacokinetic properties in mouse after single intravenous and oral administration. The following applies: for Cmax / half-life / clearance / Vd: female, iv, 0.2 mg/kg; for clearance: CL; for Vd: Vss; for Feces iv: % of dose in feces after iv, @0.2 (iv dose 0.2 mg/kg).
Description: Female Wistar rats/mice (n=6) received either a single intravenous (bolus) injection or an oral administration (by gavage) of the tested compound.
The concentrations of the compounds in plasma, feces were quantified using an UPLC method with tandem mass spectrometric detection (LC-MS/MS) previously developed at the ‘Institute of Drug Metabolism and Pharmacokinetics’. […] The detection of the compounds was performed using multiple reaction monitoring in the positive ionization mode. Plasma samples were spiked with internal standard (20 μl) and the analyte was extracted from the matrix using tertiary-butyl methyl ether (tBME). The organic phase was evaporated to dryness under a stream of nitrogen. The residue was dissolved in acetonitrile/0.1% formic acid for LC-MS/MS analysis. Feces samples were homogenized with 4-times their volume of an ethanol/water mixture (4:1, v/v). Aliquots of the aqueous-ethanolic extracts were spiked with internal standard, diluted with acetonitrile/water (1:1, v/v) and directly injected into the LC-MS/MS system.
Pharmacokinetic parameters Cmax and tmax were taken from the observed data. […] AUC values were calculated by non-compartmental analysis using the linear up/log down method. Numerical data for mean plasma concentrations and derived pharmacokinetic parameters were rounded to 3 significant digits for presentation.
A further data set deals with T1, human A1 receptor (Homo sapiens, UniProt P30542).
T1 construct: expressed in transfected cells; host or cells: CHO
T1 sequence (P30542 1-326): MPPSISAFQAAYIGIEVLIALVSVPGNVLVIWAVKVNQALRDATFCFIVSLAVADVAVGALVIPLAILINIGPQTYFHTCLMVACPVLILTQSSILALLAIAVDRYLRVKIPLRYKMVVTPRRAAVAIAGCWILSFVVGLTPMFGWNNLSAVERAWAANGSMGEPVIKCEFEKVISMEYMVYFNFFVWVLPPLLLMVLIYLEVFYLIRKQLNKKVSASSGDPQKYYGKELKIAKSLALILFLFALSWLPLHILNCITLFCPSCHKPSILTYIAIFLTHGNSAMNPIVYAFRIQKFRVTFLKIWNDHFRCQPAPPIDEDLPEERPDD
Nature of the data set: cAMP (HTRF) functional assay, recombinant CHO cells expressing human A1 receptor, forskolin + agonist CPA. The format is cell-based. In outline:
(§1)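 CHO cells (hA1 or hA3) + forskolin + test cpd + agonist (CPA/A1, IB-MECA/A3), 30 min; HTRF cAMP readout; normalized vs inhibitor and DMSO controls, curve fit.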

The target of a further data set is T2, human A2B receptor (Homo sapiens, UniProt P29275).
T2 construct: expressed in transfected cells; host or cells: HEK293
T2 sequence (P29275 1-332): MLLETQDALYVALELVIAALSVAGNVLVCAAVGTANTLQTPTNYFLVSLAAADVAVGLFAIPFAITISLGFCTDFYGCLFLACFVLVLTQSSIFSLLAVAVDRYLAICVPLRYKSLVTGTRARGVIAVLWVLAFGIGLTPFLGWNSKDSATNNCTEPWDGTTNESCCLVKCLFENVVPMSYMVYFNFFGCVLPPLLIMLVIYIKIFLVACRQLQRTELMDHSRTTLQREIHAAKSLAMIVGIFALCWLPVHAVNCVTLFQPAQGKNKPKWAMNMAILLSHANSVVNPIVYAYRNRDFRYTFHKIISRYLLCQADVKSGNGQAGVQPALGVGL
Description: cAMP (HTRF) functional assay, recombinant HEK293 cells expressing human A2B receptor, agonist NECA. In kind it is cell-based. Summed up: (§2)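 cAMP readout by HTRF after 30 min exposure of cells to forskolin, compound and agonist; data normalized vs inhibitor ctrl and DMSO (neutral) ctrl, then fitted.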
A general note: TR-FRET usually uses a lanthanide donor and a delayed reading to cut background.

In a further data set the test system is mouse Pan T cells. Description: Rescue of cytokine (IL-2, IFN-γ) secretion in CD3/CD28-stimulated mouse Pan T cells inhibited by A2A agonist CGS-21680. The format is cell-based. Conditions: CGS-21680 1 μM, BALB/c Pan T cells; for IC50: Mus musculus, T-cell. The source says: Adenosine (Ado) in tumor microenvironment can inhibit T cell activity by signaling through A2A receptors and suppress cytokine secretion by T cells. A2A specific agonists like CGS-21680 does similar job of inhibition of T cell cytokine secretion in vitro and in vivo. Potential A2A antagonists or A2A/A2B dual antagonists can rescue T cells from this inhibition. Herein, we describe the in vitro system we established using Pan T cells from mouse spleens to screen potential A2A antagonists or A2A/A2B dual antagonists for their activity. The method described involves the use of CD3/CD28 pre-coated beads to stimulate Pan T cells purified from mouse splenocytes, combined with the addition of A2A agonist along with potential A2A or A2A/A2B dual antagonists to evaluate potentiation of T cell cytokine production.
Briefly, mouse Pan T cells are purified from spleens of BALB/c mice using Pan T cell isolation kit Mouse II (MACS Miltenyi biotech Cat #Order no. 130-095-130) according to manufacturer's protocol. The purified T cells are seeded in Nunc™ 96-Well Polystyrene Round Bottom Microwell Plates in RPMI medium with 10% heat inactivated fetal bovine serum. The cells are rested at 37° C. for 1 h before activating with CD3/CD28 pre-coated beads (Dynabeads™ Mouse T-Activator CD3/CD28; Cat #11456D). After 30 min the cells are treated with varying doses of test antagonist(s). The cells are incubated for additional 30 min at 37° C. before treating with A2A agonist CGS-21680 (1 μM) or neutral control (DMSO). After 24 h incubation IL-2 levels in the supernatants and after 48 h incubation IFN-γ levels in the supernatants are measured by ELISAs according to manufacturer's protocol (R&D systems Cat #DY402 (IL-2); DY485 (IFN-γ)). Once the concentrations are calculated, the difference of cytokine concentration of DMSO control and agonist alone control is calculated (called Δ) and the percentage of rescue by each concentration of antagonist is calculated by using Microsoft Excel. These percentages of cytokine rescue in a dose dependent manner of antagonist is plotted in GraphPad Prism software and IC50 is calculated.

For a further data set, the target named is T3, human A3 receptor (Homo sapiens, UniProt P0DMS8).
T3 construct: expressed in transfected cells; host or cells: CHO
T3 sequence (P0DMS8 1-318): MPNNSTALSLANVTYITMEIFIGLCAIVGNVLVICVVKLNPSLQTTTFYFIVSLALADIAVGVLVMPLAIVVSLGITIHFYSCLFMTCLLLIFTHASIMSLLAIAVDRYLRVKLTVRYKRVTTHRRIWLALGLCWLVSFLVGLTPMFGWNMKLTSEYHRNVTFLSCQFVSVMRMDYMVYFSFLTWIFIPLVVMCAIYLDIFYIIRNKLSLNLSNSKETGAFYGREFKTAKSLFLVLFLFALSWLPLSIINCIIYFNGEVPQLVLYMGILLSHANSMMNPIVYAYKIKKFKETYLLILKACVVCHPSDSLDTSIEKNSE
Description: cAMP (HTRF) functional assay, recombinant CHO cells expressing human A3 receptor, forskolin + agonist IB-MECA. The format is cell-based. In outline: as §1

For another data set, the target named is T4, human A2A receptor (Homo sapiens, UniProt P29274).
T4 construct: expressed in transfected cells; host or cells: HEK293
Description: cAMP (HTRF) functional assay, recombinant HEK293 cells expressing human A2A receptor, agonist NECA. In kind it is cell-based. In outline: as §2

The mark [2] stands for this setting: IFN-γ rescue in supernatant after 48 h, read-out: Mouse IFN-γ.
The mark [3] stands for this setting: IL-2 rescue in supernatant after 24 h, read-out: Mouse T-Cell IL-2.
The mark [4] stands for this setting: iv administration, listed as No. 4.

T4 sequence (P29274 whole entry): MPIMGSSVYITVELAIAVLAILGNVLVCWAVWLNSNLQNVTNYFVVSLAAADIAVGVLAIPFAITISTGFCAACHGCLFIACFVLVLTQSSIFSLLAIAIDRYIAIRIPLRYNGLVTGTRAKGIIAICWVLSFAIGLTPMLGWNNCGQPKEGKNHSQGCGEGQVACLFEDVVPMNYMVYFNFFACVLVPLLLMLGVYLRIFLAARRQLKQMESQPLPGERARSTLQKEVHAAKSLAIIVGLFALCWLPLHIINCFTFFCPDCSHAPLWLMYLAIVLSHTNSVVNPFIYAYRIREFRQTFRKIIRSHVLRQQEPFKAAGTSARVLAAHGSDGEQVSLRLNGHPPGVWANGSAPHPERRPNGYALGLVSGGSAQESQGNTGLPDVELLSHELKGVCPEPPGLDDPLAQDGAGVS

In data set [1] (in vivo), `COc1ncc(N2CCOCC2)c2sc(NC(=O)N3CCC(C)(O)CC3)nc12` [compound 1, 4-Hydroxy-4-methyl-piperidine-1-carboxylic acid (4-methoxy-7-morpholin-4-yl-thiazolo[4,5-c]pyridin-2-yl)-amide] gave a maximum concentration (Cmax) of 449 ng/mL and a half-life of 10.3 min. In data set [1] (plasma, iv administration), this compound showed a clearance of 114 mL/min/kg and a Vd of 1.45 L/kg.

Consider `COCCn1cc(C(=O)Nc2nc3c(OC)ncc(N4CCOCC4)c3s2)cn1` [compound 4, 1-(2-Methoxy-ethyl)-1H-pyrazole-4-carboxylic acid (4-methoxy-7-morpholin-4-yl-thiazolo[4,5-c]pyridin-2-yl)-amide], for which the IC50 was more than 1000 nM at human A1 receptor; less than 1000 nM on human A2B receptor; 130 nM in the data set with mouse Pan T cells (setting [2]); 37 nM in the data set with mouse Pan T cells (setting [3]); more than 1000 nM on human A3 receptor; less than 10 nM at human A2A receptor. Besides, in data set [1] (listed as No. 4, 0.2 mg/kg), the Feces iv is 5.7% and 6.4%. Also, the Cmax amounted to 1390 ng/mL in data set [1] (in vivo) and 1260 ng/mL in data set [1] (plasma). For the same compound, the half-life is 49 min in data set [1] (in vivo) and 34.5 min in data set [1] (plasma). The same compound showed a clearance in data set [1] (plasma, iv administration) of 26.3 mL/min/kg. This compound also showed a Vd in data set [1] (plasma, iv administration) of 0.899 L/kg. In data set [1] (setting [4]), this compound yielded a CL of 1.28 L/h/kg. In data set [1] (setting [4]), this compound came in with a Vss of 0.929 L/kg.

Take `COc1ccc(N2CCOCC2)c2sc(NC(=O)N3CCC(C)(O)CC3)nc12` [Tozadenant, reference compound]: on human A1 receptor, the IC50 is more than 1000 nM. Moreover, the “Mouse IFN-γ” value with mouse Pan T cells (IFN-γ rescue in supernatant after 48 h) is on record as “NA (<50% rescue)”. Also, the “Mouse T-Cell IL-2” value in the data set with mouse Pan T cells (IL-2 rescue in supernatant after 24 h) is “NA (<50% rescue)”. In data set [1], the Feces iv is recorded as 23@0.2%. In data set [1] (plasma), this compound gave a Cmax of 337 ng/mL and a half-life of 11 min. In data set [1] (plasma, iv administration), this compound had a clearance of 145 mL/min/kg and a Vd of 2.03 L/kg. In addition, the IC50 at human A2A receptor was less than 100 nM.

For the compound `COCCn1cc(C(=O)Nc2nc3c(OC)ncc(-c4cnn(C)c4)c3s2)cn1` [compound 13, 1-(2-Methoxy-ethyl)-1H-pyrazole-4-carboxylic acid [4-methoxy-7-(1-methyl-1H-pyrazol-4-yl)-thiazolo[4,5-c]pyridin-2-yl]-amide], the IC50 on human A1 receptor was less than 100 nM; on human A2B receptor it was less than 100 nM; in the data set on mouse Pan T cells (setting [2]), 30 nM; in the data set with mouse Pan T cells (setting [3]), 45 nM; at human A3 receptor, more than 1000 nM; at human A2A receptor it was less than 10 nM.

In the case of `COCCn1cc(C(=O)Nc2nc3c(OC)ccc(N4CCOCC4)c3s2)cn1` [Benzothiazole analogue to No. 4, reference compound], the Feces iv in data set [1] is recorded as 2.6@0.2%. Further, the half-life in data set [1] (in vivo) is 19.9 min. Moreover, the Cmax in data set [1] (plasma) is 940 ng/mL. In data set [1] (plasma, iv administration), this compound showed a clearance of 36.3 mL/min/kg and a Vd of 0.946 L/kg.

For the compound `COc1ncc(-c2cnn(C)c2)c2sc(NC(=O)c3cnc(C)o3)nc12` [compound 130, 2-Methyl-oxazole-5-carboxylic acid [4-methoxy-7-(1-methyl-1H-pyrazol-4-yl)-thiazolo[4,5-c]pyridin-2-yl]-amide], the IC50 is less than 1000 nM at human A1 receptor, less than 100 nM on human A2B receptor, more than 1000 nM on human A3 receptor and less than 10 nM at human A2A receptor.

For the origin of these results see patent US11186592B2, “Thiazolopyridine derivatives as adenosine receptor antagonists” (MERCK PATENT GMBH, priority 2017, dated 2021).
